The values below come from patent publication US11415513B2, “Method for determining the degree of sensitivity of a strain of fungus to an antifungal agent” (UNIVERSITE GRENOBLE ALPES, priority 2015, dated 2022).

The subject of experiment [1] is strain DSY296 of C. albicans. Nature of the experiment: Sensitivity test by HCA microscopy (chitin level, Calcofluor White). The format is cell-based, Candida albicans. To be noted: vs cells in the absence of antifungal agent; 6.5 h at 30° C., SC medium; concentration gradient of Table 1. On the procedure:
(§1) The strains of Candida were incubated beforehand at 30° C. overnight in a yeast extract medium—peptone dextrose (YPD) (1% bacto peptone, 0.5% yeast extract, 2% glucose, 1.5% agar).
Yeast colonies were then removed from YPD medium plates and suspended in a 0.9% NaCl saline solution, in which the cell concentration was estimated by optical microscopy using Kova counting slides. […]
A step of acquiring images by automated fluorescence microscopy (ScanR screening station, Olympus), using a 40× lens and a CFW filter, made it possible to obtain 30 images per well so as to capture enough cells to provide statistically significant data. These images were analysed by software (ScanR analysis software, Olympus). Firstly, the background noise was processed so as to improve the contrast between the fluorescence of the yeasts and background noise. […] Segmentation of the fluorescent elements present in each of the acquired images was then performed using an algorithm predefined in the software, making it possible to determine the limit of each element on the basis of the fluorescence intensity of said element. […]
(§2) Each element then corresponding to a yeast, it was thus possible, on the basis of these elements predefined beforehand, to define the fluorescence intensity for each of the yeasts, this intensity being directly correlated with the chitin content of their wall. […]

Experiment [2] deals with strain Tg5 of C. glabrata. The description is as above. The format is cell-based, Candida glabrata. As to conditions: 6.5 h at 35° C., RPMI medium; for decrease in the chitin level in the wall of the cells: vs cells in the absence of antifungal agent, concentration gradient of Table 1. On the procedure: as §1
(§3) Yeast colonies were then removed from YPD medium plates and suspended in a 0.9% NaCl saline solution, in which the cell concentration was estimated by optical microscopy using Kova counting slides.
(§4) A dilution was performed to obtain 15 ml of an inoculum at 3×10^6 CFU/ml, in a synthetic complete (SC) medium at pH 7 (2% glucose, 0.5% ammonium sulfate, 0.17% nitrogen-containing yeast base, 0.2% synthetic complete mixture, and 10% HEPES 1.5M pH 7.2) for C. albicans, C. parapsilosis, C. tropicalis and C. krusei, and in a solution of RPMI 1640 pH 7.3 (10% HEPES 1M pH 7.2) for C. glabrata, so as to reduce the formation of septa and clusters.
(§5) 1 ml of inoculum was then added to 2 ml of antifungal solution prepared in an SC or RPMI medium depending on the species of fungus, so as to obtain a final concentration of yeast of 10^6 CFU/ml and the desired concentration of antifungal agent according to table 1.
(§6) After homogenisation, the cultures were placed at 30° C. at 200 rpm, with the exception of cultures of C. glabrata, which were placed at 35° C. at 200 rpm, and incubated for a period of 6.5 h or 24 h.
(§7) After incubation, 100 μl of the culture of fungi obtained above were transferred in triplicate to 96-well plates, and 2.5 μl of Calcofluor White (CFW) were added to each well so as to mark the chitin of the cell walls of the yeasts.
A step of acquiring images by automated fluorescence microscopy (ScanR screening station, Olympus), using a 40× lens and a CFW filter, made it possible to obtain 30 images per well so as to capture enough cells to provide statistically significant data. These images were analysed by software (ScanR analysis software, Olympus). Firstly, the background noise was processed so as to improve the contrast between the fluorescence of the yeasts and background noise. A pixel threshold was then defined. Segmentation of the fluorescent elements present in each of the acquired images was then performed using an algorithm predefined in the software, making it possible to determine the limit of each element on the basis of the fluorescence intensity of said element. […]
as §2
(§8) The chitin level in the cell wall of the yeasts was then measured by […] analysis (HCA) microscopy, as described in paragraph II of the Examples section, in triplicate for each condition of concentration of fluconazole and without fluconazole. […]

Experiment [3] has as its system strain GRE32 of C. krusei. Nature of the experiment: Sensitivity test by HCA microscopy (chitin level, Calcofluor White; cell count). The format is cell-based, Candida krusei. On the procedure:
as §1, §3, §4, §5, §6, §7
A step of acquiring images by automated fluorescence microscopy (ScanR screening station, Olympus), using a 40× lens and a CFW filter, made it possible to obtain 30 images per well so as to capture enough cells to provide statistically significant data. These images were analysed by software (ScanR analysis software, Olympus). Firstly, the background noise was processed so as to improve the contrast between the fluorescence of the yeasts and background noise. A pixel threshold was then defined. Segmentation of the fluorescent elements present in each of the acquired images was then performed using an algorithm predefined in the software, making it possible to determine the limit of each element on the basis of the fluorescence intensity of said element. A size parameter was then applied to select the yeasts and eliminate the aggregates and the fluorescent debris.
Each element then corresponding to a yeast, it was thus possible, on the basis of these elements predefined beforehand, to define the fluorescence intensity for each of the yeasts, this intensity being directly correlated with the chitin content of their wall.
On the basis of said defined elements, it was also possible to automatically count the yeasts,
The strain GRE32 of C. krusei was cultivated as described in paragraph I of the Examples section so as to obtain an inoculum at 3×10^6 CFU/ml in 15 ml of SC medium.
2 ml of fluconazole solution prepared in the SC medium were then added to 1 ml of this inoculum so as to obtain a final concentration of yeast of 10^6 CFU/ml and of 128 μg/ml in fluconazole. […]
as §8

Take `OC(Cn1cncn1)(Cn1cncn1)c1ccc(F)cc1F` [fluconazole]: the “decrease in the chitin level in the wall of the cells” value in experiment [1] is “less than 20%”; in experiment [2] it was “less than 20%”; in experiment [3] (vs cells in the absence of antifungal agent, 6.5 h at 30° C., SC medium, concentration gradient of Table 1) it was “less than 20%”. Also, the “phenotype of the strain with respect to the antifungal agent (HCA)” value in experiment [2] is “resistant (an increase in the chitin level having a value less than 10% or a decrease in the chitin level of less than 20% or an unchanged chitin level)”; in experiment [3] (6.5 h at 30° C., SC medium), “resistant (an increase in the chitin level having a value less than 10% or a decrease in the chitin level of less than 20% or an unchanged chitin level)”.

Turning to `C[C@@H](c1ncncc1F)[C@](O)(Cn1cncn1)c1ccc(F)cc1F` [voriconazole], the “decrease in the chitin level in the wall of the cells” value in experiment [1] and in experiment [2] was “less than 20%” throughout. Moreover, the “phenotype of the strain with respect to the antifungal agent (HCA)” value in experiment [2] is “resistant (an increase in the chitin level having a value less than 10% or a decrease in the chitin level of less than 20% or an unchanged chitin level)”; in experiment [3] (24 h at 30° C.) it was “intermediate (an increase in the chitin level having a value of from 10% to a value less than 20%)”. Besides, in experiment [3] (vs cells in the absence of antifungal agent, 24 h at 30° C.), the “decrease of the number of cells” value is listed as “less than 0.3 log”. Besides, the “increase in the chitin level in the wall of the cells” value in experiment [3] (vs cells in the absence of antifungal agent, 24 h at 30° C., inoculum in SC medium, antifungal solution in RPMI medium, concentration gradient of Table 1) was “greater than or equal to 20%”.
